# Data taken from ChEMBL document CHEMBL1146272, “Isoindolone derivatives, a new class of 5-HT2C antagonists: synthesis and biological evaluation” (Bioorg Med Chem Lett, 2007).
# The source made the active and inactive calls. The rule behind the calls is not given here.
# Target: T1, 5-hydroxytryptamine receptor 2C (Homo sapiens, UniProt P28335)
# T1 sequence (P28335 whole entry): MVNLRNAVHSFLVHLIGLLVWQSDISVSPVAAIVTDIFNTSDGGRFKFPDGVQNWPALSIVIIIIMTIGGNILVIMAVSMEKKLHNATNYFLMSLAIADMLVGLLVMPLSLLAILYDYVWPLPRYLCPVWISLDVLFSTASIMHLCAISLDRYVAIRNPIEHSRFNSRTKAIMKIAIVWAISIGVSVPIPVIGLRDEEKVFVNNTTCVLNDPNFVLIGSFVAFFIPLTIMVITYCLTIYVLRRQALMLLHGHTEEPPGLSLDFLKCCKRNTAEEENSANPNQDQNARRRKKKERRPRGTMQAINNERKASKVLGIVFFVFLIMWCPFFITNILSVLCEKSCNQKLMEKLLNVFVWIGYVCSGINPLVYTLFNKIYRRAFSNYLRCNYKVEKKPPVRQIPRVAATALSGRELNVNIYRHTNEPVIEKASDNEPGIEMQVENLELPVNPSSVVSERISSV
# Assay: Displacement of [3H]mesulergine from 5HT2C receptor expressed in HEK293 cells
# Type: cell-based
# Settings: not given
row,Ki [µM],SMILES
1,0.00398,COc1ccc(N2Cc3cccc(Cl)c3C2=O)cc1OCCN1CCCCC1
2,0.000398,COc1ccc(N2Cc3cc(F)cc(C(F)(F)F)c3C2=O)cc1OCCN1CCC(C)CC1
3,0.0501,COc1ccc(N2Cc3ccccc3C2=O)cc1OCCN1CCCCC1
4,0.002,COc1ccc(N2Cc3c(F)c(F)cc(Cl)c3C2=O)cc1OCCN1CCC(C)CC1
5,0.00251,COc1ccc(N2Cc3cc(Cl)cc(Cl)c3C2=O)cc1OCCN1CCCCCC1
6,0.126,COc1ccc(N2Cc3cc(C)cc(C)c3C2=N)cc1OCCN1CCC(C)CC1
7,0.00631,COc1ccc(N2Cc3cc(Cl)cc(Cl)c3C2=O)cc1OCCN1[C@H](C)CCC[C@@H]1C
8,0.00251,COc1ccc(N2Cc3cccc(C)c3C2=O)cc1OCCN1CCC(C)CC1
9,0.002,COc1ccc(N2Cc3cc(Cl)cc(Cl)c3C2=O)cc1OCCN1CCC(C)(C)CC1
10,0.01,COc1ccc(N2Cc3cc(Cl)cc(Cl)c3C2=O)cc1OCCN1CCCCC1C (stereo unspecified)
11,0.251,COc1ccc(N2Cc3c(Cl)cccc3C2=O)cc1OCCN1CCCCC1
12,0.00158,COc1ccc(N2Cc3cc(Cl)cc(Cl)c3C2=O)cc1OCCN1CCC(C)CC1
13,0.0158,COc1ccc(N2Cc3ccc(Cl)cc3C2=O)cc1OCCN1CCCCC1

row,SMILES,Ki [µM]
1,COc1ccc(N2Cc3cccc(Cl)c3C2=O)cc1OCCN1CCC(C)CC1,0.00158
2,COc1ccc(N2Cc3cccc(Br)c3C2=O)cc1OCCN1CCC(C)CC1,0.000794

# Target: T2, 5-hydroxytryptamine receptor 2A (Homo sapiens, UniProt P28223)
# Assay: Displacement of [3H]ketanserin from 5HT2A receptor expressed in HEK293 cells
# Type: cell-based
# Settings: not given
# T2 sequence (P28223 whole entry): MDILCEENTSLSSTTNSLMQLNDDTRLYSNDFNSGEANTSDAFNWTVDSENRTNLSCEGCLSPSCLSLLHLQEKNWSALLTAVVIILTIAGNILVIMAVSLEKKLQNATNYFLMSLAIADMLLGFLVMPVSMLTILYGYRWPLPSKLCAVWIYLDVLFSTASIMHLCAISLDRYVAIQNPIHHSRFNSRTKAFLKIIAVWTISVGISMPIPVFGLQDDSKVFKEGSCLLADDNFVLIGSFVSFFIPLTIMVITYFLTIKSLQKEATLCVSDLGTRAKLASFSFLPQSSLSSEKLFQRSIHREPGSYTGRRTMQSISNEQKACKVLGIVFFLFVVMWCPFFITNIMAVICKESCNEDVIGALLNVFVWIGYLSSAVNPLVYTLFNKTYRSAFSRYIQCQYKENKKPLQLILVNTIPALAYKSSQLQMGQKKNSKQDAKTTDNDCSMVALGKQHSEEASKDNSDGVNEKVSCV
row,Ki [µM],SMILES
1,1,COc1ccc(N2Cc3cccc(Cl)c3C2=O)cc1OCCN1CCCCC1
2,0.251,COc1ccc(N2Cc3cc(F)cc(C(F)(F)F)c3C2=O)cc1OCCN1CCC(C)CC1
3,> 10,COc1ccc(N2Cc3ccccc3C2=O)cc1OCCN1CCCCC1
4,0.501,COc1ccc(N2Cc3c(F)c(F)cc(Cl)c3C2=O)cc1OCCN1CCC(C)CC1
5,0.631,COc1ccc(N2Cc3cc(Cl)cc(Cl)c3C2=O)cc1OCCN1CCCCCC1
6,> 3.98,COc1ccc(N2Cc3cc(C)cc(C)c3C2=N)cc1OCCN1CCC(C)CC1
7,0.316,COc1ccc(N2Cc3cc(Cl)cc(Cl)c3C2=O)cc1OCCN1[C@H](C)CCC[C@@H]1C
8,> 6.31,COc1ccc(N2Cc3cccc(C)c3C2=O)cc1OCCN1CCC(C)CC1
9,0.398,COc1ccc(N2Cc3cc(Cl)cc(Cl)c3C2=O)cc1OCCN1CCC(C)(C)CC1
10,> 3.98,COc1ccc(N2Cc3cc(Cl)cc(Cl)c3C2=O)cc1OCCN1CCCCC1C (stereo unspecified)
11,> 7.94,COc1ccc(N2Cc3c(Cl)cccc3C2=O)cc1OCCN1CCCCC1
12,0.398,COc1ccc(N2Cc3cc(Cl)cc(Cl)c3C2=O)cc1OCCN1CCC(C)CC1
13,> 2.51,COc1ccc(N2Cc3ccc(Cl)cc3C2=O)cc1OCCN1CCCCC1

row,SMILES,Ki [µM]
1,COc1ccc(N2Cc3cccc(Cl)c3C2=O)cc1OCCN1CCC(C)CC1,0.794
2,COc1ccc(N2Cc3cccc(Br)c3C2=O)cc1OCCN1CCC(C)CC1,0.631

# Target: T3, 5-hydroxytryptamine receptor 2B (Homo sapiens, UniProt P41595)
# Assay: Displacement of [3H]5-HT from 5HT2B receptor expressed in HEK293 cells
# Type: cell-based
# Settings: not given
# T3 sequence (P41595 whole entry): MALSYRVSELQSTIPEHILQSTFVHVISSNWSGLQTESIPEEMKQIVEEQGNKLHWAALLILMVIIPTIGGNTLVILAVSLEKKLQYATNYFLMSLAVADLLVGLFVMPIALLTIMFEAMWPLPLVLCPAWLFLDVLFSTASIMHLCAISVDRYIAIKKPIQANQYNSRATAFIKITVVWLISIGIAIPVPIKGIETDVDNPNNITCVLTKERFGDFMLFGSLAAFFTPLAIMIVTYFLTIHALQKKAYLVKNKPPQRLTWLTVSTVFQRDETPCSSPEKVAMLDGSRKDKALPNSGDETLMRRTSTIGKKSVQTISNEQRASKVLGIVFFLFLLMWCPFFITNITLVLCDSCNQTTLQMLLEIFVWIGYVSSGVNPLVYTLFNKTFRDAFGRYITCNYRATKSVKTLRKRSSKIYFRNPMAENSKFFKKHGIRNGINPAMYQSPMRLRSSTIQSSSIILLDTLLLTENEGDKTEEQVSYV
row,Ki [µM],SMILES
1,0.316,COc1ccc(N2Cc3cccc(Cl)c3C2=O)cc1OCCN1CCCCC1
2,0.251,COc1ccc(N2Cc3cc(F)cc(C(F)(F)F)c3C2=O)cc1OCCN1CCC(C)CC1
3,> 1.58,COc1ccc(N2Cc3ccccc3C2=O)cc1OCCN1CCCCC1
4,0.126,COc1ccc(N2Cc3c(F)c(F)cc(Cl)c3C2=O)cc1OCCN1CCC(C)CC1
5,0.2,COc1ccc(N2Cc3cc(Cl)cc(Cl)c3C2=O)cc1OCCN1CCCCCC1
6,> 3.16,COc1ccc(N2Cc3cc(C)cc(C)c3C2=N)cc1OCCN1CCC(C)CC1
7,0.126,COc1ccc(N2Cc3cc(Cl)cc(Cl)c3C2=O)cc1OCCN1[C@H](C)CCC[C@@H]1C
8,0.2,COc1ccc(N2Cc3cccc(C)c3C2=O)cc1OCCN1CCC(C)CC1
9,0.251,COc1ccc(N2Cc3cc(Cl)cc(Cl)c3C2=O)cc1OCCN1CCC(C)(C)CC1
10,> 2.51,COc1ccc(N2Cc3cc(Cl)cc(Cl)c3C2=O)cc1OCCN1CCCCC1C (stereo unspecified)
11,> 0.794,COc1ccc(N2Cc3c(Cl)cccc3C2=O)cc1OCCN1CCCCC1
12,0.2,COc1ccc(N2Cc3cc(Cl)cc(Cl)c3C2=O)cc1OCCN1CCC(C)CC1
13,> 1.58,COc1ccc(N2Cc3ccc(Cl)cc3C2=O)cc1OCCN1CCCCC1

row,SMILES,Ki [µM]
1,COc1ccc(N2Cc3cccc(Cl)c3C2=O)cc1OCCN1CCC(C)CC1,0.126
2,COc1ccc(N2Cc3cccc(Br)c3C2=O)cc1OCCN1CCC(C)CC1,0.158

# Tested on: not listed separately
# Assay: Blood clearance in iv dosed rat
# Type: ADME, organism-based
# Settings: whole blood
row,clearance [L/h/kg],SMILES
1,3,COc1ccc(N2Cc3cc(Cl)cc(Cl)c3C2=O)cc1OCCN1CCC(C)CC1

# Tested on: not listed separately
# Assay: Volume of distribution in iv dosed rat
# Type: ADME, organism-based
# Settings: in vivo, read-out: Vdss
row,Vd [L/kg],SMILES
1,5.8,COc1ccc(N2Cc3cc(Cl)cc(Cl)c3C2=O)cc1OCCN1CCC(C)CC1

# Target: T4, 5-hydroxytryptamine receptor 2C (Homo sapiens) (UniProt P28335)
# T4 sequence (whole entry): T1 sequence (P28335 whole entry)
# Assay: Agonist activity at 5HT2C receptor expressed in HEK293 cells assessed as intracellular calcium mobilisation up to 10 uM
# Type: functional, cell-based
# Settings: not given
row,Activity,SMILES
1,inactive,CCOC(=O)c1ccc(N2Cc3ccccc3C2=O)cc1OCCN(CC)CC
2,inactive,COc1ccc(N2Cc3c(c4cc(Cl)ccc4n3C)C2=O)cc1OCCN1CCC(C)CC1
3,inactive,COc1ccc(N2Cc3cccc(Cl)c3C2=O)cc1OCCN1CCCCC1
4,inactive,COc1ccc(N2Cc3cc(F)cc(C(F)(F)F)c3C2=O)cc1OCCN1CCC(C)CC1
5,inactive,COc1ccc(N2Cc3ccccc3C2=O)cc1OCCN1CCCCC1
6,inactive,COc1ccc(N2Cc3c(F)c(F)cc(Cl)c3C2=O)cc1OCCN1CCC(C)CC1
7,inactive,COc1ccc(N2Cc3cc(Cl)cc(Cl)c3C2=O)cc1OCCN1CCCCCC1
8,inactive,COc1ccc(N2Cc3cc(C)cc(C)c3C2=N)cc1OCCN1CCC(C)CC1
9,inactive,COc1ccc(N2Cc3cc(Cl)cc(Cl)c3C2=O)cc1OCCN1[C@H](C)CCC[C@@H]1C
10,inactive,COc1ccc(N2Cc3cccc(C)c3C2=O)cc1OCCN1CCC(C)CC1
11,inactive,COc1ccc(N2Cc3cc(Cl)cc(Cl)c3C2=O)cc1OCCN1CCC(C)(C)CC1
12,inactive,COc1ccc(N2Cc3cc(Cl)cc(Cl)c3C2=O)cc1OCCN1CCCCC1C (stereo unspecified)
13,inactive,COc1ccc(N2Cc3c(Cl)cccc3C2=O)cc1OCCN1CCCCC1
14,inactive,COc1ccc(N2Cc3cc(Cl)cc(Cl)c3C2=O)cc1OCCN1CCC(C)CC1
15,inactive,COc1ccc(N2Cc3ccc(Cl)cc3C2=O)cc1OCCN1CCCCC1
16,inactive,COc1ccc(N2CC=C(c3ccc(Cl)c(Cl)c3)C2=O)cc1OCCN1CCC(C)CC1

row,SMILES,Activity
1,COc1ccc(N2Cc3cccc(Cl)c3C2=O)cc1OCCN1CCC(C)CC1,inactive
2,COc1ccc(N2Cc3cccc(Br)c3C2=O)cc1OCCN1CCC(C)CC1,inactive

# Target: T2, 5-hydroxytryptamine receptor 2A
# Assay: Agonist activity at 5HT2A receptor expressed in HEK293 cells assessed as intracellular calcium mobilisation up to 10 uM
# Type: functional, cell-based
# Settings: not given
row,Activity,SMILES
1,inactive,CCOC(=O)c1ccc(N2Cc3ccccc3C2=O)cc1OCCN(CC)CC
2,inactive,COc1ccc(N2Cc3c(c4cc(Cl)ccc4n3C)C2=O)cc1OCCN1CCC(C)CC1
3,inactive,COc1ccc(N2Cc3cccc(Cl)c3C2=O)cc1OCCN1CCCCC1
4,inactive,COc1ccc(N2Cc3cc(F)cc(C(F)(F)F)c3C2=O)cc1OCCN1CCC(C)CC1
5,inactive,COc1ccc(N2Cc3ccccc3C2=O)cc1OCCN1CCCCC1
6,inactive,COc1ccc(N2Cc3c(F)c(F)cc(Cl)c3C2=O)cc1OCCN1CCC(C)CC1
7,inactive,COc1ccc(N2Cc3cc(Cl)cc(Cl)c3C2=O)cc1OCCN1CCCCCC1
8,inactive,COc1ccc(N2Cc3cc(C)cc(C)c3C2=N)cc1OCCN1CCC(C)CC1
9,inactive,COc1ccc(N2Cc3cc(Cl)cc(Cl)c3C2=O)cc1OCCN1[C@H](C)CCC[C@@H]1C
10,inactive,COc1ccc(N2Cc3cccc(C)c3C2=O)cc1OCCN1CCC(C)CC1
11,inactive,COc1ccc(N2Cc3cc(Cl)cc(Cl)c3C2=O)cc1OCCN1CCC(C)(C)CC1
12,inactive,COc1ccc(N2Cc3cc(Cl)cc(Cl)c3C2=O)cc1OCCN1CCCCC1C (stereo unspecified)
13,inactive,COc1ccc(N2Cc3c(Cl)cccc3C2=O)cc1OCCN1CCCCC1
14,inactive,COc1ccc(N2Cc3cc(Cl)cc(Cl)c3C2=O)cc1OCCN1CCC(C)CC1
15,inactive,COc1ccc(N2Cc3ccc(Cl)cc3C2=O)cc1OCCN1CCCCC1
16,inactive,COc1ccc(N2CC=C(c3ccc(Cl)c(Cl)c3)C2=O)cc1OCCN1CCC(C)CC1

row,SMILES,Activity
1,COc1ccc(N2Cc3cccc(Cl)c3C2=O)cc1OCCN1CCC(C)CC1,inactive
2,COc1ccc(N2Cc3cccc(Br)c3C2=O)cc1OCCN1CCC(C)CC1,inactive

# Target: T3, 5-hydroxytryptamine receptor 2B
# Assay: Agonist activity at 5HT2B receptor expressed in HEK293 cells assessed as intracellular calcium mobilisation up to 10 uM
# Type: functional, cell-based
# Settings: not given
row,Activity,SMILES
1,inactive,CCOC(=O)c1ccc(N2Cc3ccccc3C2=O)cc1OCCN(CC)CC
2,inactive,COc1ccc(N2Cc3c(c4cc(Cl)ccc4n3C)C2=O)cc1OCCN1CCC(C)CC1
3,inactive,COc1ccc(N2Cc3cccc(Cl)c3C2=O)cc1OCCN1CCCCC1
4,inactive,COc1ccc(N2Cc3cc(F)cc(C(F)(F)F)c3C2=O)cc1OCCN1CCC(C)CC1
5,inactive,COc1ccc(N2Cc3ccccc3C2=O)cc1OCCN1CCCCC1
6,inactive,COc1ccc(N2Cc3c(F)c(F)cc(Cl)c3C2=O)cc1OCCN1CCC(C)CC1
7,inactive,COc1ccc(N2Cc3cc(Cl)cc(Cl)c3C2=O)cc1OCCN1CCCCCC1
8,inactive,COc1ccc(N2Cc3cc(C)cc(C)c3C2=N)cc1OCCN1CCC(C)CC1
9,inactive,COc1ccc(N2Cc3cc(Cl)cc(Cl)c3C2=O)cc1OCCN1[C@H](C)CCC[C@@H]1C
10,inactive,COc1ccc(N2Cc3cccc(C)c3C2=O)cc1OCCN1CCC(C)CC1
11,inactive,COc1ccc(N2Cc3cc(Cl)cc(Cl)c3C2=O)cc1OCCN1CCC(C)(C)CC1
12,inactive,COc1ccc(N2Cc3cc(Cl)cc(Cl)c3C2=O)cc1OCCN1CCCCC1C (stereo unspecified)
13,inactive,COc1ccc(N2Cc3c(Cl)cccc3C2=O)cc1OCCN1CCCCC1
14,inactive,COc1ccc(N2Cc3cc(Cl)cc(Cl)c3C2=O)cc1OCCN1CCC(C)CC1
15,inactive,COc1ccc(N2Cc3ccc(Cl)cc3C2=O)cc1OCCN1CCCCC1
16,inactive,COc1ccc(N2CC=C(c3ccc(Cl)c(Cl)c3)C2=O)cc1OCCN1CCC(C)CC1

row,SMILES,Activity
1,COc1ccc(N2Cc3cccc(Cl)c3C2=O)cc1OCCN1CCC(C)CC1,inactive
2,COc1ccc(N2Cc3cccc(Br)c3C2=O)cc1OCCN1CCC(C)CC1,inactive

# Target: T4, 5-hydroxytryptamine receptor 2C (Homo sapiens)
# Assay: Antagonist activity at 5HT2C receptor expressed in HEK293 cells assessed as blockade of 5-hydroxytryptamine-induced intracellular calcium mobilisation
# Type: functional, cell-based
# Settings: not given
row,pKb,SMILES
1,6,COc1ccc(N2Cc3c(Cl)cccc3C2=O)cc1OCCN1CCCCC1
2,8.8,COc1ccc(N2Cc3cc(Cl)cc(Cl)c3C2=O)cc1OCCN1CCC(C)CC1
3,7.2,COc1ccc(N2Cc3ccc(Cl)cc3C2=O)cc1OCCN1CCCCC1

row,SMILES,pKb
1,COc1ccc(N2Cc3cccc(Cl)c3C2=O)cc1OCCN1CCC(C)CC1,8.7
2,COc1ccc(N2Cc3cccc(Br)c3C2=O)cc1OCCN1CCC(C)CC1,9.3
